This note sets out measurements from patent US20260200939A1, “MOLECULAR GLUE DEGRADER COMPOUNDS AND USES THEREOF” (Novartis AG, priority 2022, published 2026).

Broadly, the DC50 is the concentration at which degradation of the target reaches its halfway point. Read a low DC50 as degradation at low concentration.

One experiment has as its target T1, BRD4 short (Homo sapiens, UniProt O60885).
T1 construct: endogenous in cells; host or cells: HEK293T
Nature of the experiment: BRD4 (short) degradation assay, Western blotting. In kind it is cell-based. As to the method: (§1) C33A cells were purchased from American Type Culture Collection (ATCC) and were cultured in Dulbecco's Modified Eagle Medium (DMEM) containing 10% (v/v) fetal bovine serum (FBS) and maintained at 37° C. with 5% CO2. 22RV1 cells were purchased from the ATCC and were cultured in RPMI-1640 Medium containing 10% (v/v) FBS and maintained at 37° C. with 5% CO2. HEK293T cells were obtained from the UC Berkeley Cell Culture Facility and were cultured in DMEM containing 10% (v/v) FBS and maintained at 37° C. with 5% CO2. K562 cells were obtained from the UC Berkeley Cell Culture Facility and were cultured in Iscove's Modified Dulbecco's Medium (IMDM) containing 10% (v/v) FBS and maintained at 37° C. with 5% CO2. MV-4-11 cells were obtained from the ATCC and were cultured in IMDM containing 10% (v/v) FBS and maintained at 37° C. with 5% CO2. A549 cells were obtained from the ATCC and were cultured in F-12K Medium containing 10% (v/v) FBS and maintained at 37° C. with 5% CO2. Mino cells were obtained from the ATCC and were cultured in RPMI-1640 Medium containing 10% (v/v) FBS and maintained at 37° C. with 5% CO2. LNCaP cells were obtained from the ATCC and were cultured in RPMI-1640 Medium containing 10% (v/v) FBS and maintained at 37° C. with 5% CO2. Unless otherwise specified, all cell culture materials were purchased from Gibco. It is not known whether HEK293T cells are from male or female origin.
(§2) Cells were washed twice with cold PBS, scraped, and pelleted by centrifugation (700 g, 5 min, 4° C.). Pellets were resuspended in PBS, sonicated, clarified by centrifugation (12,000 g, 10 min, 4° C.), and lysate was transferred to new low-adhesion microcentrifuge tubes. Proteome concentrations were determined using BCA assay and lysate was diluted to appropriate working concentrations.
(§3) Proteins were resolved by SDS/PAGE and transferred to nitrocellulose membranes using the Trans-Blot Turbo transfer system (Bio-Rad). Membranes were blocked with 5% BSA in Tris-buffered saline containing Tween 20 (TBS-T) solution for 30 min at RT, washed in TBS-T, and probed with primary antibody diluted in recommended diluent per manufacturer overnight at 4° C. After 3 washes with TBS-T, the membranes were incubated in the dark with IR680- or IR800-conjugated secondary antibodies at 1:10,000 dilution in 5% BSA in TBS-T at RT for 1 h. After 3 additional washes with TBST, blots were visualized using an Odyssey Li-Cor fluorescent scanner. The membranes were stripped using ReBlot Plus Strong Antibody Stripping Solution (EMD Millipore) when additional primary antibody incubations were performed. Antibodies used in this study were CDK4 (Abcam ab108357), Vinculin (Abcam ab129002), GAPDH (Cell Signaling Technology 14C10), RNF126 (Santa Cruz Biotechnology sc-376005), BRD4 (Abcam ab128874), Beta Actin (Cell Signaling Technology 13E5), PDE5 (Abcam ab259945), AR-V7 (Abcam ab273500), c-Abl (Santa Cruz Biotechnology sc-23), SMARCA2 (Abcam ab240648), LRRK2 (Abcam ab133474), BTK (Cell Signaling Technology D3H5), Androgen Receptor (Abcam ab133273).
A general note: In western blotting, separated proteins are transferred to a membrane and probed.

In a further experiment the target is T2, BRD4 long (Homo sapiens, UniProt O60885).
T2 construct: endogenous in cells; host or cells: HEK293T
Nature of the experiment: BRD4 (long) degradation assay, Western blotting. The experiment is classed as cell-based. As to the method:
as §1, §2, §3

Where [1] appears, read: second value of cell (long/short).
The mark [2] stands for this setting: first value of cell (long/short).
Where [3] appears, read: first value of cell, range with lower bound in nM and upper bound in μM.
[4] abbreviates: second value of cell, range with lower bound in nM and upper bound in μM.

On to `Cc1sc2c(c1C)C(c1ccc(Cl)cc1)=N[C@@H](CC(=O)N1CCN(C(=O)/C=C/C(=O)c3ccc4c(c3)CCO4)CC1)c1nnc(C)n1-2` [Compound 210, (S,E)-1-(4-(2-(4-(4-chlorophenyl)-2,3,9-trimethyl-6H-thieno[3,2-f][1,2,4]triazolo[4,3-a][1,4]diazepin-6-yl)acetyl)piperazin-1-yl)-4-(2,3-dihydrobenzofuran-5-yl)but-2-ene-1,4-dione], for which the DC50 on BRD4 short (setting [1]) and on BRD4 long (setting [2]) was below 100 nM each time.
In the case of `Cc1sc2c(c1C)C(c1ccc(Cl)cc1)=N[C@@H](CC(=O)N[C@H]1C[C@H](NC(=O)/C=C/C(=O)c3ccc4c(c3)CCO4)C1)c1nnc(C)n1-2` [Compound 211, (E)-N-((1S,3r)-3-(2-((S)-4-(4-chlorophenyl)-2,3,9-trimethyl-6H-thieno[3,2-f][1,2,4]triazolo[4,3-a][1,4]diazepin-6-yl)acetamido)cyclobutyl)-4-(2,3-dihydrobenzofuran-5-yl)-4-oxobut-2-enamide], the half-maximal degradation concentration (DC50) at BRD4 short (setting [1]) and at BRD4 long (setting [2]) was 10 to 100 nM in each case.
Regarding `COc1ccc(C(=O)/C=C/C(=O)N2C[C@H]3CN(C(=O)C[C@@H]4N=C(c5ccc(Cl)cc5)c5c(sc(C)c5C)-n5c(C)nnc54)[C@H]3C2)cc1` [Compound 212, (E)-1-((1S,5R)-6-(2-((S)-4-(4-chlorophenyl)-2,3,9-trimethyl-6H-thieno[3,2-f][1,2,4]triazolo[4,3-a][1,4]diazepin-6-yl)acetyl)-3,6-diazabicyclo[3.2.0]heptan-3-yl)-4-(4-methoxyphenyl)but-2-ene-1,4-dione], the figures for the DC50 at BRD4 short (setting [1]) and at BRD4 long (setting [3]) were 10 to 100 nM and 100 to 1000 nM, respectively.
For the compound `COc1ccc(C(=O)/C=C/C(=O)N2C[C@@H]3CN(C(=O)C[C@@H]4N=C(c5ccc(Cl)cc5)c5c(sc(C)c5C)-n5c(C)nnc54)[C@@H]3C2)cc1` [Compound 213, (E)-1-((1R,5S)-6-(2-((S)-4-(4-chlorophenyl)-2,3,9-trimethyl-6H-thieno[3,2-f][1,2,4]triazolo[4,3-a][1,4]diazepin-6-yl)acetyl)-3,6-diazabicyclo[3.2.0]heptan-3-yl)-4-(4-methoxyphenyl)but-2-ene-1,4-dione], the 50% degradation concentration (DC50) at BRD4 short (setting [4]) and on BRD4 long (setting [3]) was 100 to 1000 nM throughout.
Take `COc1ccc(C(=O)/C=C/C(=O)N2CCN(C(=O)C[C@@H]3N=C(c4ccc(Cl)cc4)c4c(sc(C)c4C)-n4c(C)nnc43)C[C@@H]2C)cc1` [Compound 214, (E)-1-((S)-4-(2-((S)-4-(4-chlorophenyl)-2,3,9-trimethyl-6H-thieno[3,2-f][1,2,4]triazolo[4,3-a][1,4]diazepin-6-yl)acetyl)-2-methylpiperazin-1-yl)-4-(4-methoxyphenyl)but-2-ene-1,4-dione]: the DC50 on BRD4 short (setting [1]) and at BRD4 long (setting [2]) was 10 to 100 nM in each case.
With `COc1ccc(C(=O)/C=C/C(=O)N2[C@H](C)CN(C(=O)C[C@@H]3N=C(c4ccc(Cl)cc4)c4c(sc(C)c4C)-n4c(C)nnc43)C[C@@H]2C)cc1` [Compound 215, (E)-1-((2S,6R)-4-(2-((S)-4-(4-chlorophenyl)-2,3,9-trimethyl-6H-thieno[3,2-f][1,2,4]triazolo[4,3-a][1,4]diazepin-6-yl)acetyl)-2,6-dimethylpiperazin-1-yl)-4-(4-methoxyphenyl)but-2-ene-1,4-dione], the 50% degradation concentration (DC50) on BRD4 short (setting [1]) was 10 to 100 nM; at BRD4 long (setting [2]), below 10 nM.
Taken in the same sequence, the figures for `COc1ccc(C(=O)/C=C/C(=O)N2CCN(C(=O)C[C@@H]3N=C(c4ccc(Cl)cc4)c4c(sc(C)c4C)-n4c(C)nnc43)[C@@H](C)C2)cc1` [Compound 216, (E)-1-((S)-4-(2-((S)-4-(4-chlorophenyl)-2,3,9-trimethyl-6H-thieno[3,2-f][1,2,4]triazolo[4,3-a][1,4]diazepin-6-yl)acetyl)-3-methylpiperazin-1-yl)-4-(4-methoxyphenyl)but-2-ene-1,4-dione] were below 10 nM and below 10 nM.
Take `COc1ccc(C(=O)/C=C/C(=O)N2CCN(C(=O)C[C@@H]3N=C(c4ccc(Cl)cc4)c4c(sc(C)c4C)-n4c(C)nnc43)C[C@H]2C)cc1` [Compound 217, (E)-1-((R)-4-(2-((S)-4-(4-chlorophenyl)-2,3,9-trimethyl-6H-thieno[3,2-f][1,2,4]triazolo[4,3-a][1,4]diazepin-6-yl)acetyl)-2-methylpiperazin-1-yl)-4-(4-methoxyphenyl)but-2-ene-1,4-dione]: the DC50 at BRD4 short (setting [1]) and on BRD4 long (setting [2]) was below 10 nM in each case.
For the compound `COc1ccc(C(=O)/C=C/C(=O)N2CCN(C(=O)C[C@@H]3N=C(c4ccc(Cl)cc4)c4c(sc(C)c4C)-n4c(C)nnc43)[C@H](C)C2)cc1` [Compound 218, (E)-1-((R)-4-(2-((S)-4-(4-chlorophenyl)-2,3,9-trimethyl-6H-thieno[3,2-f][1,2,4]triazolo[4,3-a][1,4]diazepin-6-yl)acetyl)-3-methylpiperazin-1-yl)-4-(4-methoxyphenyl)but-2-ene-1,4-dione], the DC50 at BRD4 short (setting [1]) and on BRD4 long (setting [2]) was below 10 nM each time.
Turning to `COc1ccc(C(=O)/C=C/C(=O)N2CCCN(C(=O)C[C@@H]3N=C(c4ccc(Cl)cc4)c4c(sc(C)c4C)-n4c(C)nnc43)CC2)cc1` [Compound 219, (S,E)-1-(4-(2-(4-(4-chlorophenyl)-2,3,9-trimethyl-6H-thieno[3,2-f][1,2,4]triazolo[4,3-a][1,4]diazepin-6-yl)acetyl)-1,4-diazepan-1-yl)-4-(4-methoxyphenyl)but-2-ene-1,4-dione], the DC50 on BRD4 short (setting [4]) and on BRD4 long (setting [3]) was 100 to 1000 nM throughout.
Regarding `COc1ccc(C(=O)/C=C/C(=O)N2CCN(C(=O)C[C@@H]3N=C(c4ccc(Cl)cc4)c4c(sc(C)c4C)-n4c(C)nnc43)CC23CC3)cc1` [Compound 221, (S,E)-1-(7-(2-(4-(4-chlorophenyl)-2,3,9-trimethyl-6H-thieno[3,2-f][1,2,4]triazolo[4,3-a][1,4]diazepin-6-yl)acetyl)-4,7-diazaspiro[2.5]octan-4-yl)-4-(4-methoxyphenyl)but-2-ene-1,4-dione], the DC50 on BRD4 short (setting [1]) and on BRD4 long (setting [2]) was 10 to 100 nM throughout.
Turning to `COc1ccc(C(=O)/C=C/C(=O)NC2CC(NC(=O)C[C@@H]3N=C(c4ccc(Cl)cc4)c4c(sc(C)c4C)-n4c(C)nnc43)C2)cc1` (stereo partly drawn) [Compound 222], the 50% degradation concentration (DC50) on BRD4 short (setting [1]) and at BRD4 long (setting [2]) was 1 to 10 nM throughout.
Take `COc1ccc(C(=O)/C=C/C(=O)N[C@H]2C[C@H](NC(=O)C[C@@H]3N=C(c4ccc(Cl)cc4)c4c(sc(C)c4C)-n4c(C)nnc43)C2)cc1` [Compound 223, (E)-N-((1S,3r)-3-(2-((S)-4-(4-chlorophenyl)-2,3,9-trimethyl-6H-thieno[3,2-f][1,2,4]triazolo[4,3-a][1,4]diazepin-6-yl)acetamido)cyclobutyl)-4-(4-methoxyphenyl)-4-oxobut-2-enamide]: the DC50 on BRD4 short (setting [1]) amounted to 12 nM; at BRD4 long (setting [2]), 8 nM.
Take `COc1ccc(C(=O)/C=C/C(=O)N2CCC3(CCN(C(=O)C[C@@H]4N=C(c5ccc(Cl)cc5)c5c(sc(C)c5C)-n5c(C)nnc54)C3)C2)cc1` (stereo partly drawn) [Compound 224, (E)-1-(7-(2-((S)-4-(4-chlorophenyl)-2,3,9-trimethyl-6H-thieno[3,2-f][1,2,4]triazolo[4,3-a][1,4]diazepin-6-yl)acetyl)-2,7-diazaspiro[4.4]nonan-2-yl)-4-(4-methoxyphenyl)but-2-ene-1,4-dione]: the DC50 on BRD4 short (setting [1]) and at BRD4 long (setting [2]) was 1 to 10 nM in each case.
Turning to `COc1ccc(C(=O)/C=C/C(=O)N2CC3CCN(C(=O)C[C@@H]4N=C(c5ccc(Cl)cc5)c5c(sc(C)c5C)-n5c(C)nnc54)CC3C2)cc1` (stereo partly drawn) [Compound 225, (E)-1-(5-(2-((S)-4-(4-chlorophenyl)-2,3,9-trimethyl-6H-thieno[3,2-f][1,2,4]triazolo[4,3-a][1,4]diazepin-6-yl)acetyl)octahydro-2H-pyrrolo[3,4-c]pyridin-2-yl)-4-(4-methoxyphenyl)but-2-ene-1,4-dione], the results for the DC50 on BRD4 short (setting [4]) and at BRD4 long (setting [2]) were 100 to 1000 nM and below 10 nM, respectively.
